Read-outs that look alike come from different tables or passages of the source. Where only a bound is given, the exact number is not on record here.

The text below walks through data of paper PMC9228412, “Synthesis and Activity of Triazole-Adenosine Analogs as Protein Arginine Methyltransferase 5 Inhibitors” (Molecules, 2022).

One series has as its system BCR-ABL-driven CML. Also on record: method as in PMID 27643437. Conditions: murine model of BCR-ABL-driven CML; cited from earlier work.
Series [1] deals with 29 other human methyltransferases. Also on record: method as in PMID 25893041. Conditions: cited from earlier work.
The test system of series [2] is PRMT5. Particulars: cited from earlier work.
In a further series the target is PRMT1 (Homo sapiens, UniProt Q99873). The series is described as follows: scintillation proximity assay (SPA) of PRMT1 methyltransferase activity. The class given is biochemical. Particulars: for remaining activity at 10 µM: 0.5 h, remaining activity of the enzyme, single point SPA test, inhibitor 10 μM, read-out: Relative Activity of PRMT1 at 10 μM. How it is done:
(§1) The methyltransferase activities of PRMT5 and PRMT1 in the absence and presence of the synthetic inhibitors were measured by using the scintillation proximity assay (SPA) protocol (Table 1). In the initial test, the inhibitor concentration was set at 10 μM. H4(1–20)K20biotin [Ac-[…](biotin)-NH2] was used as the peptide substrate, at a final concentration of 0.5 μM. ^3H-SAM was used as the methyl donor at 0.5 μM. SAH was used as a control inhibitor. […] Analysis of the biochemical activity results against PRMT5 disclosed a few interesting structure–activity relationship (SAR) trends. […] If the hydroxyl group of 3 was changed to an amine (6), the potency was improved; however, the selectivity was abolished. Generally, compounds that contained positive charges (6, 20, 21, 22, 24) near the triazole ring had further improved potencies.
Inhibitor was dissolved in water to create a 10 mM stock concentration. This was then diluted in buffer (50 mM HEPES pH 8, 10 mM NaCl, 0.5 mM EDTA, 0.5 mM DTT in H2O) to create a series of working concentrations centered around an anticipated IC50. [H]^3-SAM and substrate were diluted together in buffer to working concentrations of […], respectively. To each well in a 96-well plate, 6 μL of the inhibitor solution was added, with negative and positive controls receiving buffer. In total, 6 μL of the [H]^3-SAM/substrate solution was then added to each well. The enzyme was then diluted in buffer to a working concentration of 0.83 μM, and 18 μL was added to each well, with negative controls receiving 18 μL of buffer. The plate was covered, and the reaction was allowed to run for 30 min and was then quenched with the addition of 30 μL of 100% iPrOH followed by 60 μL of 50% iPrOH in H2O. In total, 10 μL of 20 mg/mL streptavidin-coated scintillant beads were added and the plate was read using a MicroBeta (Perkin Elmer, Waltham, MA, USA) plate reader. The CPM counts in the absence of an inhibitor for each data set were considered as 100% activity. In the absence of the enzyme and inhibitor, the CPM counts in each data set were defined as background (0%).
In general terms: Scintillation proximity formats need no separation of bound from free tracer.

Series [3] has as its target T1, PRMT5 (Homo sapiens, UniProt O14744).
T1 construct: His-tag; made in house; host or cells: Sf9 insect cells (Bac-to-Bac baculovirus)
The series is described as follows: scintillation proximity assay (SPA) of PRMT5 methyltransferase activity. The class given is biochemical. Conditions: for remaining activity at 10 µM: 0.5 h, remaining activity of the enzyme, single point SPA test, inhibitor 10 μM, read-out: Relative Activity of PRMT5 at 10 μM. The method, then:
as §1
Human recombinant His-tag PRMT5 was co-expressed with His-tag MEP50 using the Bac-to-Bac baculovirus expression system (Invitrogen, Life Technologies, Carlsbad, CA, USA) as previously described. Briefly, pFB-LIC-Bse-PRMT5 and pFB-LIC-Bse-MEP50 were heat shock transformed in the DH10Bac E. coli to obtain the recombinant bacmids, and the bacmids were extracted using the PureLink HiPure Plasmid Miniprep Kit (Invitrogen, Thermo Scientific, Carlsbad, CA, USA). The purity and concentration of the plasmid were measured by a Nanodrop. Sf9 cells were cultured in Sf-900 II SFM medium until the cell density reached 1.5 × 10^6 cells/mL and cell viability was more than 95%. Cells were plated in a 6-well tissue culture plate at a density of 4 × 10^5 cells/mL per well. In total, 2 µg of PRMT5 and MEP50 recombinant bacmid were transfected into each well of cells. After 5 h of transfection, the transfection medium was replaced by 2 mL of Sf-900 II SFM + 100 U P/S per well. The medium was collected and centrifuged at 1000 rpm for 5 min to obtain the supernatant P1 viral stock after 7 days of inoculation at 27.5 °C. To obtain a higher titer of viral stock, P1 viral stock was amplified in a 6-well tissue culture plate containing 2 × 10^6 cells per well. In total, 0.1 MOI of P1 virus stock was added into each well. After 7 days of incubation at 27.5 °C, the cell medium was centrifuged at 1000 rpm for 5 min to obtain the P2 viral stock in the supernatant. The Baculovirus plaque assay was performed to determine the viral titer concentration; the target concentration range was 1 × 10^7–1 × 10^8 IFU/mL.
For the expression of PRMT5 and MEP50, Sf9 insect cells were cultured in suspension at 27.5 °C at a speed of 130 rpm in Expression Systems ESF 921 medium with 100 U P/S. In total, 200 mL of Sf9 cell culture was inoculated with PRMT5 and MEP50 P2 viral stocks when the cell density reached 1.5 × 10^6 cells/mL. After incubation for 72 h at 27.5 °C, the cells were harvested and centrifuged. PRMT5 and MEP50 protein were collected in the cell pellet for further purification. Cell pellets were disrupted twice at 100 psi in 25 mL of cell lysis buffer (50 mM Tris pH 8, 300 mM NaCl, 10% glycerol, 0.1% Triton X-100, 1 mM PMSF). Before the Ni-NTA purification, 10 mL of Ni-NTA resin (EMD Millipore, Burlington, MA, USA) was loaded into a 50 mL column and equilibrated with equilibration buffer (50 mM Tris pH 8, 250 mM NaCl, 30 mM Imidazole, 10% glycerol, 1 mM TCEP, 1 mM PMSF). After 60 min of cell lysate centrifugation at 4 °C at 18,000 rpm, the cell lysate supernatant was incubated with the equilibrated nickel resin. The resin was washed with equilibration buffer and protein was eluted with elution buffer (50 mM Tris pH 8, 250 mM NaCl, 300 mM Imidazole, 10% glycerol, 1 mM TCEP, 1 mM PMSF). For the dialysis of protein, elution samples were loaded into a 10,000 MWCO SnakeSkin (Thermo Scientific, Waltham, MA, USA) dialysis bag in the storage buffer (50 mM Tris pH 8, 250 mM NaCl, 10% glycerol, 1 mM TCEP). […]

On the set-up of series [4]: method as in PMID 25915199. Particulars: cited from earlier work.
Where [5] appears, read: SPA, concentration-dependent, read-out: IC50 PRMT1 (converted).
The mark [6] stands for this setting: 0.5 μM H4(1–20)K20biotin, 0.5 μM 3H-SAM.
The mark [7] stands for this setting: SPA, concentration-dependent, 0.5 μM H4(1–20)K20biotin, 0.5 μM 3H-SAM, read-out: IC50 PRMT5 (converted).

PRMT1, sequence (Q99873 whole entry, species assumed): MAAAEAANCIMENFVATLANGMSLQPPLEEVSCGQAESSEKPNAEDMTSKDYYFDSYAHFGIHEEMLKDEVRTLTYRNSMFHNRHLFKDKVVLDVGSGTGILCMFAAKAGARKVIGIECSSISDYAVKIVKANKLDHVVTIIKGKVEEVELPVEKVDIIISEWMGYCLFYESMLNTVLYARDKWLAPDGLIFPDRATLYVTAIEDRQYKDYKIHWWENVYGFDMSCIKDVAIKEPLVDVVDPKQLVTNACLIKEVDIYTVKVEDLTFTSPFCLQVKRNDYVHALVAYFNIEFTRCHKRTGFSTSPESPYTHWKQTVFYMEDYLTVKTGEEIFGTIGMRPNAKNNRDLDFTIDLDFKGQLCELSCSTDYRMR
T1 sequence (O14744 whole entry): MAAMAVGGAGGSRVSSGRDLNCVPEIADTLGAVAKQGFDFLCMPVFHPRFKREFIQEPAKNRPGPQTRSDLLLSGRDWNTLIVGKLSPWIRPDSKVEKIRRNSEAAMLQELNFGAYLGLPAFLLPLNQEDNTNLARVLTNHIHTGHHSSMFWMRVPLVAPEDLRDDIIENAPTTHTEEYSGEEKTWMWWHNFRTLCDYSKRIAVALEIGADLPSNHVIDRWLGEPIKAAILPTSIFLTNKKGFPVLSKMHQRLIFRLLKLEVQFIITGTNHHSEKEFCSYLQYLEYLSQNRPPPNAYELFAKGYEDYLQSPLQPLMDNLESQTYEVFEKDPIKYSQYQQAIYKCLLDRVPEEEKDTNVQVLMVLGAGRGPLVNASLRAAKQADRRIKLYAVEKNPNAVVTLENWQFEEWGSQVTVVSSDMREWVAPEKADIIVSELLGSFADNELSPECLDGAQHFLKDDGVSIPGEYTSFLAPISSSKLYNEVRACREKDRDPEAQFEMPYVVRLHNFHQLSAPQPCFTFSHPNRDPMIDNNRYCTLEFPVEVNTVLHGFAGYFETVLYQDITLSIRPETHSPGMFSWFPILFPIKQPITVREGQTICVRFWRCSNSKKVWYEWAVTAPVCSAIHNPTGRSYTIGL
T1 sequence (Q9BQA1 whole entry partner): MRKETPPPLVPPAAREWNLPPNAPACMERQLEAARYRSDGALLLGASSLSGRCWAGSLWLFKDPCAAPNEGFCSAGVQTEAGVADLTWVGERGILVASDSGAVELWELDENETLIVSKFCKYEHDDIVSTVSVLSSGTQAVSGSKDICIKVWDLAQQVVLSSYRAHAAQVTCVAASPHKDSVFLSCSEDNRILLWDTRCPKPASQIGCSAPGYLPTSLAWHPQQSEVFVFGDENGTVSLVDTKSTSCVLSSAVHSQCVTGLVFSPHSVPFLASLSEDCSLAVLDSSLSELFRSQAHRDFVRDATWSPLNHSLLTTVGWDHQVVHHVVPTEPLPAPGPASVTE

In the case of `CCn1c2ccccc2c2cc(CNC3CCCc4ccccc43)ccc21` (stereo not drawn) [PJ-68], the survival entry with BCR-ABL-driven CML is “significant increase in survival”.
The term IC50 denotes the concentration that gives 50% inhibition. As for `CCNC(=O)NCCSC[C@H]1O[C@@H](n2cnc3c(N)ncnc32)[C@H](O)[C@@H]1O` [DS-437], the “activity towards 29 other human methyltransferases” value in series [1] was “inactive”. In addition, the IC50 with PRMT5 [2] (dual PRMT5/PRMT7 inhibitor) is 6 µM.
`Nc1nc2cc(CC[C@H]3C[C@@H](n4ccc5c(N)ncnc54)[C@H](O)[C@@H]3O)ccc2cc1Br` [JNJ-64619178]: the IC50 in the series with PRMT5 [2] (bisubstrate inhibitor) was 0.00015 µM.
For the molecule `[N-]=[N+]=NC[C@H]1O[C@@H](n2cnc3c(N)ncnc32)[C@H](O)[C@@H]1O` [Compound 1, 5′-azido-5′-deoxyadenosine], the remaining activity at 10 µM at PRMT1 is 97.5 ± 7.6%; at PRMT5 [3] (setting [6]), 48 ± 9.7%. Moreover, the IC50 at PRMT1 (setting [5]) is more than 1000 µM; at PRMT5 [3] (setting [7]), 3 µM.
For `CCn1c2ccccc2c2cc(CNCc3ccccn3)ccc21` [CMP5], the potency with PRMT5 [2] was 50 µM.
Regarding `Nc1ncnc2c1ncn2[C@@H]1O[C@H](Cn2cc(CNC(=O)c3ccccc3)nn2)[C@@H](O)[C@H]1O` [Compound 15, N-((1-(((2R,3S,4R,5R)-5-(6-amino-9H-purin-9-yl)-3,4-dihydroxytetrahydrofuran-2-yl)methyl)-1H-1,2,3-triazol-4-yl)methyl)benzamide], the remaining activity at 10 µM on PRMT1 was 123 ± 4.4%; at PRMT5 [3] (setting [6]), 94.2 ± 12%. In addition, the IC50 at PRMT5 [3] (setting [7]) is more than 40 µM.
As for `CC(C)[C@H](N)C(=O)OCc1cn(C[C@H]2O[C@@H](n3cnc4c(N)ncnc43)[C@H](O)[C@@H]2O)nn1` [Compound 20, (1-(((2R,3S,4R,5R)-5-(6-amino-9H-purin-9-yl)-3,4-dihydroxytetrahydrofuran-2-yl)methyl)-1H-1,2,3-triazol-4-yl)methyl L-valinate], the remaining activity at 10 µM at PRMT1 came out at 111 ± 5.5%; on PRMT5 [3] (setting [6]), 26 ± 0.45%. For the same molecule, the IC50 at PRMT1 (setting [5]) is 43.5 µM; at PRMT5 [3] (setting [7]), 0.88 µM. Besides, the “selectivity for PRMT5 over PRMT1” value at PRMT5 [3] (ratio of IC50 values) is “approximately 49 fold”.
Regarding `Nc1ncnc2c1ncn2[C@@H]1O[C@H](Cn2cc(C[C@H](N)C(=O)O)nn2)[C@@H](O)[C@H]1O` [Compound 19, (S)-2-amino-3-(1-(((2R,3S,4R,5R)-5-(6-amino-9H-purin-9-yl)-3,4-dihydroxytetrahydrofuran-2-yl)methyl)-1H-1,2,3-triazol-4-yl)propanoic acid], the IC50 is more than 200 µM on PRMT1 (setting [5]) and 18.9 µM on PRMT5 [3] (setting [7]).
Consider `Nc1cc2c(cc1F)OCC(=O)N2Cc1cn(C[C@H]2O[C@@H](n3cnc4c(N)ncnc43)[C@H](O)[C@@H]2O)nn1` [Compound 26], for which the remaining activity at 10 µM amounted to 100 ± 4.6% on PRMT1 and 83 ± 2.5% at PRMT5 [3] (setting [6]).
Turning to `OC(COc1cccc(CNC2CCCC2)c1)CN1CCc2ccccc2C1` (stereo not drawn) [EPZ007345], the in vitro clearance entry in series [4] is “poor”. Further, the potency with PRMT5 [2] was 0.326 µM.
In the case of `C[Si](C)(C)Cc1cn(C[C@H]2O[C@@H](n3cnc4c(N)ncnc43)[C@H](O)[C@@H]2O)nn1` [Compound 9, (2R,3R,4S,5R)-2-(6-amino-9H-purin-9-yl)-5-((4-((trimethylsilyl)methyl)-1H-1,2,3-triazol-1-yl)methyl)tetrahydrofuran-3,4-diol], the concentration for half-maximal inhibition (IC50) is more than 1000 µM on PRMT1 (setting [5]) and more than 200 µM at PRMT5 [3] (setting [7]).
In the case of `Nc1ncnc2c1ncn2[C@@H]1O[C@H](Cn2cc(CCCCC(=O)O)nn2)[C@@H](O)[C@H]1O` [Compound 13, 5-(1-(((2R,3S,4R,5R)-5-(6-amino-9H-purin-9-yl)-3,4-dihydroxytetrahydrofuran-2-yl)methyl)-1H-1,2,3-triazol-4-yl)pentanoic acid], the remaining activity at 10 µM at PRMT1 came to 92.7 ± 10%; at PRMT5 [3] (setting [6]), 57 ± 4.4%. The IC50 at PRMT5 [3] (setting [7]) is more than 40 µM.
In the case of `CC(C)(C)c1cn(C[C@H]2O[C@@H](n3cnc4c(N)ncnc43)[C@H](O)[C@@H]2O)nn1` [Compound 8, (2R,3R,4S,5R)-2-(6-amino-9H-purin-9-yl)-5-((4-(tert-butyl)-1H-1,2,3-triazol-1-yl)methyl)tetrahydrofuran-3,4-diol], the IC50 on PRMT1 (setting [5]) was more than 1000 µM; at PRMT5 [3] (setting [7]), 7.7 µM.
Take `Nc1ncnc2c1ncn2[C@@H]1O[C@H](Cn2cc(C(=O)O)nn2)[C@@H](O)[C@H]1O` [Compound 11, 1-(((2R,3S,4R,5R)-5-(6-amino-9H-purin-9-yl)-3,4-dihydroxytetrahydrofuran-2-yl)methyl)-1H-1,2,3-triazole-4-carboxylic acid]: the remaining activity at 10 µM on PRMT1 was found to be 96.9 ± 2.2%; on PRMT5 [3] (setting [6]), 74 ± 11%.
With `CC(=O)N[C@@H](CCCNC(=N)N)C(=O)N[C@@H](CCCNC(=N)N)C(=O)N[C@@H](Cc1cn(C[C@H]2O[C@@H](n3cnc4c(N)ncnc43)[C@H](O)[C@@H]2O)nn1)C(=O)N[C@@H](CCCNC(=N)N)C(=O)N[C@@H](CCCNC(=N)N)C(N)=O` [Compound 29], the figures for the IC50 against PRMT1 and against PRMT5 [3] were more than 400 µM and 53.7 µM, respectively.
Turning to `C[Si](C)(C)c1cn(C[C@H]2O[C@@H](n3cnc4c(N)ncnc43)[C@H](O)[C@@H]2O)nn1` [Compound 7, (2R,3R,4S,5R)-2-(6-amino-9H-purin-9-yl)-5-((4-(trimethylsilyl)-1H-1,2,3-triazol-1-yl)methyl)tetrahydrofuran-3,4-diol], the values for the IC50 at PRMT1 (setting [5]) and on PRMT5 [3] (setting [7]) were more than 1000 µM and 8.3 µM, respectively.
Consider `Nc1ncnc2c1ncn2[C@@H]1O[C@H](Cn2cc(CNCC(=O)Nc3ccccc3F)nn2)[C@@H](O)[C@H]1O` [Compound 24, 2-(((1-(((2R,3S,4R,5R)-5-(6-amino-9H-purin-9-yl)-3,4-dihydroxytetrahydrofuran-2-yl)methyl)-1H-1,2,3-triazol-4-yl)methyl)amino)-N-(2-fluorophenyl)acetamide], for which the remaining activity at 10 µM on PRMT1 was 93 ± 1.3%; at PRMT5 [3] (setting [6]), 40 ± 3.6%. The IC50 on PRMT5 [3] (setting [7]) is 13.2 µM.
